According to patent US20220364056A1, “SHORT-CHAIN FATTY ACID PENTANOATE AS ENHANCER FOR CELLULAR THERAPY AND ANTI-TUMOR THERAPY” (PHILIPPS-UNIVERSITÄT MARBURG, priority 2019, published 2022):

Assays:
human CAR T cells = experiment: human ROR1-specific CAR T cells pretreated, then co-cultured with ROR1-expressing K562 cells; assay type: cell-based
Excerpt: We next investigated the impact of SCFAs on human CD8^+ T lymphocytes and CAR T cells.
(A) CD8^+ T cells isolated from peripheral blood of healthy donors were differentiated into CTLs in presence or absence of indicated HDACi. Representative contour plots and dot plots indicate the frequency of TNF-α+ and IFN-γ^+ cells. Data points in the graphs represent individual donors (n=4, performed in 4 independent experiments) (B-G) Phenotyping of pentanoate-treated ROR1-specific CD8^+ CAR T cells (CARROR1 T cells). (B) Experimental setup for the functional analysis is shown. (C) The cytokine secretion (IFN-γ and TNF-α) was analysed in supernatants of pentanoate-treated CARROR1 T cells by ELISA. (D) The surface expression of CD25 was measured by flow cytometry. (E) The secretion of IL-2 was detected in supernatants of CARROR1 T cells by ELISA. (F) Proliferation of CARROR1 T cells was determined by CFSE labelling. CARROR1 T cells pre-treated with pentanoate were stained with CFSE and subsequently co-cultured with […] cells in the absence of pentanoate. CD8^+ T cells without the CAR construct were used as mock control cells. (G) The cytolytic activity of CARROR1 T cells was examined by analysis of specific lysis following encounter with luciferase-expressing […] cells. The percentage of lysed target cells was determined in 1 hour intervals (effector-to-target cell (E:T) ratio=2.5:1). Data points shown in the graphs (C-G) represent CARROR1 T cells derived from three different donors. Following pentanoate pre-treatment, the stimulation was mediated by co-culture of CD8^+ CARROR1 T cells with ROR1-expressing K652 ([…]) cells in the absence of pentanoate.

B16OVA melanoma cells = experiment: adoptive transfer of pretreated OT-I CTLs into mice bearing s.c. B16OVA tumors; assay type: in vivo
HDAC2 = HDAC2 (Homo sapiens, UniProt Q92769); experiment: HDAC inhibition of the recombinant HDAC2 isoform; assay type: biochemical; details: supernatants; different concentrations of SCFAs
Experimental: (A) The production of SCFAs, branched-chain fatty acids (BCFAs) and medium-chain fatty acids (MCFAs) by 16 human commensals was measured by GC-MS. All bacteria were grown in vitro until stationary growth phase before the measurement of fatty acids in supernatants. (B and C) HDAC inhibition of recombinant class I and class II HDAC isoforms by cell-free supernatants derived from 16 members of human commensal community. Significance was tested against YCFA medium. (D) Impact of bacterial SCFAs, BCFAs and MSCFAs on the activity of class I and II HDAC enzymes. TSA was used as a control pan-HDAC inhibitor.

mTOR [1] = experiment: phosphorylation of mTOR and S6 in murine CTLs; assay type: cell-based; details: pentanoate 2.5 mM, three days
Experimental: (§1) (A and B) CTLs were cultured in medium containing 1.0% FCS and treated with pentanoate (2.5 mM) for three days. Representative histogram plots and bar graphs indicate the phoshorylated levels of mTOR (A) and S6 ribosomal protein (B), respectively (n=3 pooled from three independent experiments). (C and D) Human CTLs were cultured in medium containing 1.0% serum and treated with indicated HDACi for three days. Representative histogram plots and bar graphs indicate the phoshorylated levels of mTOR (C) and S6 ribosomal protein (D), respectively (data points represent four individual healthy donors) (E) Measurement of extracellular acidification rate (ECAR) for in vitro generated murine CTLs cultured with or without 2.5 mM pentanoate for three days. ECAR was measured under basal conditions and in response to glucose (10 mM), oligomycin (2 μM), and 2-deoxy-glucose (2-DG, 100 mM). One of three independent experiments is shown.

mTOR [2] = experiment: phosphorylation of mTOR and S6 in human CTLs; assay type: cell-based; details: three days
Experimental: as §1

HDAC2, sequence (Q92769 whole entry, species assumed, canonical isoform): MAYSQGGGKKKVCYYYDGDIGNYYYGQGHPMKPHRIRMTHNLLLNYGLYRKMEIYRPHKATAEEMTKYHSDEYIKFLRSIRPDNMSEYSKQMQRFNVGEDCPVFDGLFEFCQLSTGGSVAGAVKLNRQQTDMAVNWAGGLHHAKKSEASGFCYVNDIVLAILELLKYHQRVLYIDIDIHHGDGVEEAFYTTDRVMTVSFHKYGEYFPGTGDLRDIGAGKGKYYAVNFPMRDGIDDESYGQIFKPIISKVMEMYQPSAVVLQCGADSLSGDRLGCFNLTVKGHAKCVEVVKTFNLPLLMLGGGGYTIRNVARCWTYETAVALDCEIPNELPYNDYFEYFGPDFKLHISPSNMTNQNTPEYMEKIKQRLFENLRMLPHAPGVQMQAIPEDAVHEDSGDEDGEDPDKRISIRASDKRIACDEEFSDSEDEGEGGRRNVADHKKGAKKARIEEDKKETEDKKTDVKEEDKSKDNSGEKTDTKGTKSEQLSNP

## CCCCC(=O)O [pentanoate]
Human CAR T cells; CFSE labelling, vs control CAR T cells
  proliferation of CAR T cells: proliferated stronger
Human CAR T cells; pretreated 4 days
  expression of CD25: upregulated
Human CAR T cells; pretreated 4 days, ELISA
  production of IFN-γ and TNF-α: elevated the production
  secretion of IL-2: upregulated
Human CAR T cells; specific lysis, E:T ratio 2.5:1
  cytolytic activity: superior cytolytic activity
B16OVA melanoma cells; OT-I CTLs pretreated three days with pentanoate, transferred day 5 after tumor injection
  tumor volume and weight: decreased tumor volume and weight
B16OVA melanoma cells; day 10 after adoptive transfer, vs control OT-I CTLs
  number of transferred cells expressing TNF-α and IFN-γ in tumors, draining LNs and spleen: higher number
HDAC2
  inhibition of the HDAC2 isoform: strongly inhibited
mTOR [1]
  phosphorylation level of S6 ribosomal protein: elevated the phosphorylation levels
  phosphorylation level of mTOR: elevated the phosphorylation levels
mTOR [2]
  phosphorylation level of S6 ribosomal protein: elevated the phosphorylation levels
  phosphorylation level of mTOR: elevated the phosphorylation levels
